Test results taken from US20190315823A1, “SMALL CATIONIC ANTI-BIOFILM AND IDR PEPTIDES” (priority 2013, published 2019).
Peptide text beside a SMILES is read from it.

Assays:
[1] = system: P. aeruginosa biofilms; conditions: biofilms
Method: Peptides and various conventional antibiotics were analyzed by checkerboard titration into microtiter trays using CLSI methods (Wiegand, I., K. Hilpert, and R. E. W. Hancock. 2008. Nature Protocols 3:163-175), bacteria added and, after overnight incubation at 37° C., the residual biofilm assessed by the crystal violet method mentioned in the body of the grant, with an A595 of 0.2 considered as 100% biofilm inhibition. The effects of the peptide in reducing the minimal biofilm inhibitory concentration (MBIC) of the antibiotic and vice versa were assessed using the Fractional Inhibitory Concentration (FIC) method whereby ΣFTC=FICA+FICB=(CA/MICA)+(CB/MICB), where MBICA and MBICB are the MBICs of peptide A and antibiotic B alone, respectively, and CA and CB (expressed in μg/ml) are the MICs of the drugs in combination. This conventional clinical microbiology assay is interpreted as follows

[2] = system: Klebsiella pneumoniae (Kp) biofilm; type: cell-based; conditions: peptide 10 μg/ml
Method: (§1) Methods of assessment of anti-biofilm activity—Biofilm formation was initially analyzed using a static abiotic solid surface assay as described elsewhere (de la Fuente-Nunez et al., 2012). Dilutions (1/100) of overnight cultures were incubated in BM2 biofilm-adjusted medium [62 mM potassium phosphate buffer (pH 7), 7 mM (NH4)2SO4, 2 mM MgSO4, 10 μM FeSO4, 0.4% (wt/vol) glucose, 0.5% (wt/vol) Casamino Acids], or a nutrient medium such as Luria Broth, in polypropylene microtiter plates (Falcon, United States) in the absence (control) or presence of peptide. Peptide was added at time zero (prior to adding the diluted, overnight cultures) in varying concentrations, and the decrease in biofilm formation was recorded at 22-46 h for most bacteria. Planktonic cells were removed, biofilm cells adhering to the side of the tubes were stained with crystal violet, and absorbance at 595 nm was measured using a microtiter plate reader (Bio-Tek Instruments Inc., United States). Some peptides were screened against two Gram negative organisms, P. aeruginosa and K. pneumoniae using a Bioflux apparatus (AutoMate Scientific, Berkeley, Calif.; http://www.autom8.com/bioflux_biofilm.html), which allows for the high-throughput, real-time analysis of biofilms.

[3] = system: Pseudomonas aeruginosa (Pa) biofilm; experiment: static abiotic solid surface (microtiter, crystal violet) / Bioflux biofilm inhibition screen; type: cell-based; conditions: peptide 10 μg/ml
Method: FIG. 1. Identification of new anti-biofilm peptides active against P. aeruginosa using the microtiter plate screening method with crystal violet staining. […] As a control peptide 1037 was utilized [de la Fuente Nunez et al. 2011].
as §1

[4] = system: human peripheral blood mononuclear cells (MCP-1); experiment: MCP-1 chemokine production by ELISA; type: cell-based; conditions: 24 hours of stimulation; lowest peptide concentration 20 μg/ml
Method: FIG. 19. High production of anti-infective chemokine MCP-1 by human peripheral blood mononuclear cells treated with peptides, as determined by ELISA after 24 hours of stimulation.
Venous blood (20 ml) from healthy volunteers was collected in Vacutainer® collection tubes containing sodium heparin as an anticoagulant (Becton Dickinson, Mississauga, ON) in accordance with UBC ethical approval and guidelines. Blood was diluted 1:1 with complete RPMI 1640 medium and separated by centrifugation over a Ficoll-Paque® Plus (Amersham Biosciences, Piscataway, N.J., USA) density gradient. White blood cells were isolated from the buffy coat, washed twice in RPMI 1640 complete medium, and the number of peripheral blood mononuclear cells (PBMC) was determined by Trypan blue exclusion. PBMC (5×10^5) were seeded into 12-well tissue culture dishes (Falcon; Becton Dickinson) at 0.75 to 1×10^6 cells/ml at 37° C. in 5% CO2. The above conditions were chosen to mimic conditions for circulating blood monocytes entering tissues at the site of infection via extravasation.
Following incubation of the cells under various treatment regimens, the tissue culture supernatants were centrifuged at 1000×g for 5 min, then at 10,000×g for 2 min to obtain cell-free samples. Supernatants were aliquoted and then stored at −20° C. prior to assay for various chemokines by capture ELISA (eBioscience and BioSource International Inc., CA, USA respectively)

[5] = system: human PBMC (TNFα); experiment: LPS-induced TNFα production by ELISA; type: cell-based; conditions: P. aeruginosa LPS, 24 hr
Method: FIG. 20. Ability of peptides to knockdown pro-inflammatory cytokine TNFα production by human PBMCs in response to bacterial LPS treatment as determined by ELISA after 24 hours.
LPS from P. aeruginosa strain H103 was highly purified free of proteins and lipids using the Darveau-Hancock method. Briefly, P. aeruginosa was grown overnight in LB broth at 37° C. Cells were collected and washed and the isolated LPS pellets were extracted with a 2:1 chloroform:methanol solution to remove contaminating lipids. Purified LPS samples were quantitated using an assay for the specific sugar 2-keto-3-deoxyoctosonic acid (KDO assay) and then resuspended in endotoxin-free water (Sigma-Aldrich).
Human PBMC were obtained as described above and treated with P. aeruginosa LPS (10 or 100 ng/ml) with or without peptides for 24 hr after which supernatants were collected and TNFα assessed by ELISA.

[6] = system: human PBMC (MCP-1); experiment: synergy with poly(I:C) to increase MCP-1 production; type: cell-based; conditions: 10 μg/ml peptide with 20 μg/ml poly(I:C)
Method: FIG. 21. Ability of 10 μg/ml of peptides in combination with 20 or 5 μg/ml of the known adjuvant poly inosine:cytosine [poly(I:C)] to synergize to increase MCP-1 production, a known adjuvant property [see Kindrachuk, J., H. Jenssen, M. Elliott, R. Townsend, A. Nijnik, S. F. Lee, V. Gerdts, L. A. Babiuk, S. A. Halperin and R. E. W. Hancock. 2009. A novel vaccine adjuvant comprised of a synthetic innate defence regulator peptide and CpG oligonucleotide links innate and adaptive immunity. Vaccine 27:4662-4671].
It is well accepted that vaccine immunization is best achieved by co-adminstration of an adjuvant. The precise mechanism by which these adjuvants work has eluded immunologists but appears to work in part by upregulating elements of innate immunity that smooth the transition to adaptive (antigen-specific) immunity (Bendelac A and R. Medzhitov. 2002. Adjuvants of immunity: Harnessing innate immunity to promote adaptive immunity J. Exp. Med. 195:F19-F23). Within this concept there are several possible avenues by which adjuvants might work including the attraction of immune cells into the site at which a particular antigen is injected, through e.g. upregulation of chemokines, the appropriate activation of cells when they reach that site, which can be caused by local cell or tissue damage releasing endogenous adjuvants or through specific cell activation by the adjuvants, and the compartmentalization of immune responses to the site of immunization (the so-called “depot” effect). […] 2010. Immunomodulators as adjuvants for vaccines and antimicrobial therapy. Ann. NY Acad. Sci. 1213:46-61].

[7] = system: methicillin resistant S. aureus (Sa) biofilm; type: cell-based, Staphylococcus aureus; conditions: peptide 5 μg/ml
[8] = system: Pseudomonas aeruginosa PA14 and PAO1 and Burkholderia cenocepacia; experiment: swarming and surfing motility; type: cell-based
Description: Motility is strongly involved in the virulence of bacteria since it plays an important role in the attachment of bacteria to surfaces, including those in the body and on indwelling medical devices, and in colonization of these surfaces and biofilm formation. P. aeruginosa is known to utilize at least 4 different types of motility: (a) flagellum-mediated swimming in aqueous environments and at low agar concentrations (<0.3% agar), (b) type IV pilus-mediated twitching on solid surfaces or interfaces, (c) swarming on semi-solid media (0.5-0.7% agar) in poor nitrogen (N) sources such as amino acids (AA) and (d) surfing on low agar concentrations containing mucin.
Swarming motility is a social phenomenon (a complex adaptation) involving the coordinated and rapid movement of bacteria across a semi-solid (viscous) surface, and is widespread among flagellated pathogenic bacteria. […]
This was independent of bacterial killing (antimicrobial peptide action measured by MIC) since these peptides were able to inhibit the swarming of Burkholderia cenocepacia, which as mentioned above is completely resistant to all cationic antimicrobial peptides due to its altered outer membrane.

Molecule	% Biofilm Inhibition Pa [3]	MCP-1 induction [4]	suppression of LPS-induced TNFα [5]	synergy with poly(I:C) in MCP-1 production [6]	further results
CC[C@@H](C)[C@@H](NC(=O)[C@@H](C)NC(=O)[C@@H](CCCNC(=N)N)NC(=O)[C@@H](Cc1c[nH]c2ccccc12)NC(=O)[C@@H](CCC(N)=O)NC(=O)[C@H](N)C(C)C)C(=O)N[C@H](CCCNC(=N)N)C(=O)N[C@@H](C(=O)N[C@H](CCCNC(=N)N)C(=O)N[C@@H](C(=O)N[C@@H](C(=O)N[C@H](CCCNC(=N)N)C(N)=O)[C@H](C)CC)C(C)C)C(C)C [DJK5]	99.7%				MIC for complete inhibition of Pseudomonas aeruginosa [1]: 1 µg/mL; Minimal Biofilm Inhibitory Concentration (MBIC) [1]: 0.5 µg/mL; % Biofilm Inhibition Kp [2]: 99.8%
CC[C@H](C)[C@H](NC(=O)[C@H](CC(C)C)NC(=O)[C@H](CCCNC(=N)N)NC(=O)[C@@H](N)C(C)C)C(=O)N[C@@H](Cc1c[nH]c2ccccc12)C(=O)N[C@@H](C)C(=O)N[C@H](C(=O)N[C@@H](CCCNC(=N)N)C(=O)N[C@H](C(=O)N[C@@H](Cc1c[nH]c2ccccc12)C(=O)N[C@@H](CCCNC(=N)N)C(=O)N[C@@H](CCCNC(=N)N)C(N)=O)[C@@H](C)CC)C(C)C [HE4] (H-VRLIWAVRIWRR-NH2; N-terminus assumed)		clearly superior to peptide 1018	strongly suppressed	showed synergy	
CC[C@H](C)[C@H](NC(=O)[C@H](CCCNC(=N)N)NC(=O)[C@@H](NC(=O)[C@@H](NC(=O)[C@H](CC(C)C)NC(=O)[C@H](CCCNC(=N)N)NC(=O)[C@@H](N)C(C)C)[C@@H](C)CC)C(C)C)C(=O)N[C@@H](Cc1c[nH]c2ccccc12)C(=O)N[C@@H](CCCNC(=N)N)C(=O)N[C@@H](CCCNC(=N)N)C(N)=O [HE10] (H-VRLIVRIWRR-NH2; N-terminus assumed)		clearly superior to peptide 1018	strongly suppressed	showed synergy	
CC[C@H](C)[C@H](NC(=O)[C@@H](NC(=O)[C@H](CCCNC(=N)N)NC(=O)[C@H](C)NC(=O)[C@@H](NC(=O)[C@H](CCCNC(=N)N)NC(=O)[C@H](CCCCN)NC(=O)[C@H](Cc1ccccc1)NC(=O)[C@@H](N)CCCNC(=N)N)C(C)C)C(C)C)C(=O)N[C@@H](Cc1c[nH]c2ccccc12)C(N)=O [HE12] (H-RFKRVARVIW-NH2; N-terminus assumed)		clearly superior to peptide 1018	strongly suppressed	showed synergy	
CC[C@H](C)[C@H](N)C(=O)N[C@@H](CC(C)C)C(=O)N[C@@H](CCCNC(=N)N)C(=O)N[C@@H](Cc1c[nH]c2ccccc12)C(=O)N1CCC[C@H]1C(=O)N[C@@H](Cc1c[nH]c2ccccc12)C(=O)N1CCC[C@H]1C(=O)N[C@@H](Cc1c[nH]c2ccccc12)C(=O)N[C@@H](CCCNC(=N)N)C(=O)N[C@@H](CCCNC(=N)N)C(=O)N[C@@H](CCCCN)C(N)=O [MX226, reference compound] (H-ILRWPWPWRRK-NH2; N-terminus assumed)	18%				% Biofilm Inhibition Kp [2]: 18%
CC[C@H](C)[C@H](NC(=O)[C@H](CCCNC(=N)N)NC(=O)[C@H](C)NC(=O)[C@@H](NC(=O)[C@H](CC(C)C)NC(=O)[C@H](CCCNC(=N)N)NC(=O)[C@H](CCCNC(=N)N)NC(=O)[C@@H](NC(=O)[C@@H](NC(=O)[C@H](CCCNC(=N)N)NC(=O)[C@@H](N)CCCCN)[C@@H](C)CC)C(C)C)C(C)C)C(=O)N[C@H](C(N)=O)C(C)C [Peptide 1017] (H-KRIVRRLVARIV-NH2; N-terminus assumed)	26%				% Biofilm Inhibition Sa [7]: 21%
polymyxin B					swarming motility ([8]; low concentrations): does not have anti-swarming or anti-surfing activity; surfing motility ([8]; mucin-containing plates): does not have anti-swarming or anti-surfing activity
